Results: publication PMC9456491, “Targeting the Mitochondrial Protein VDAC1 as a Potential Therapeutic Strategy in ALS” (International Journal of Molecular Sciences, 2022)

Experiments:
[1] = ref [32]; cited from earlier work
Excerpt: In order to test whether a VDAC1-derived N-terminal peptide can rescue mutant SOD1 toxicity, we expressed two different SOD1 mutants (SOD1^G93A or SOD1^G37R) in SH-SY5Y neuronal cells. These expressed SOD1 mutant proteins decreased cell survival compared to control cells. […] It is important to note that in this peptide, the last six residues f ...

[2] = tested on: SH-SY5Y neuronal cells expressing mutant SOD1^G93A or SOD1^G37R; assay: Rescue of mutant SOD1-induced cell death in transfected SH-SY5Y cells; type: cell-based; details: 4.5 × 10^4 cells/well, transfected with SOD1^G93A or SOD1^G37R, peptide 20 µM, 5 h, 24 h post-transfection, triplicates, n = 3, means ± SEM
Procedure: Figure 1 Identification of VDAC1 interacting sites in SOD1. (A) SH-SY5Y cells (4.5 × 10^4 cells/well in 24-well plates) were transfected with an empty plasmid or a plasmid encoding for mutant SOD1^G93A or SOD1^G37R. Then, 24 h post-transfection, the cells were incubated for 5 h with (10-20)N-Ter-Antp peptide (20 µM) and then analyzed for cell death. The results are from triplicates of different biological repeats (n = 3) and are presented as the means ± SEM. * p < 0.05. (B) Schematic presentation of peptide arrays and detection of VDAC1-interacting peptides. (C) Glass-bound peptide array consisting of 768 overlapping peptides derived from 19 VDAC1-interacting proteins were incubated for 4 h with purified VDAC1 (64 nM) and then blotted with anti-VDAC1 antibodies against an internal sequence (1:5000) or with antibodies against the VDAC1-N-terminus, followed by incubation with HRP-conjugated anti-mouse IgG and detection using a chemiluminescence kit. […]
SH-SY5Y and NSC-34 cells were grown at 37 °C and with 5% CO2 in Dulbecco’s modified Eagle medium (DMEM) supplemented with 10% tetracycline-free fetal bovine serum (FBS), L-Glutamine (2 mM), and penicillin (100 U/mL)/streptomycin (0.1 mg/mL). […] According to the manufacturer’s protocol, cell viability was analyzed using the CellTiter 96 AQueous one-solution cell proliferation assay (Promega) and plate reader at 490 nm.

[3] = tested on: VDAC1 interaction with SOD1-derived peptides (spots 1C16 and 1C17); assay: Inhibition of VDAC1 interaction with SOD1-derived peptides on peptide array; type: binding, rat; details: VDAC1 64 nM pre-incubated 1 h with 160 nM SOD1 protein, then 4 h with array; for inhibition of VDAC1 interaction with 1C17 peptide: spot 1C17; for decrease of VDAC1 interaction with both SOD1-derived peptides 1C16 and 1C17: spots by Image J
Procedure: Figure 2 VDAC1 interaction with SOD1-derived peptides is reduced by WT and mutant SOD1. VDAC1 (64 nM) was pre-incubated for 1 h without (A) or with 160 nM of SOD1^WT (B), SOD1^G93A (C), or SOD1^G85R (D), followed by incubation for 4 h with the peptide array and then blotted with anti-VDAC1 antibodies, as in Figure 1C. SOD1-derived sequences are circled. […] (G) Pull down with anti-SOD1 antibody was performed by incubating recombinant VDAC1 and SOD1 proteins (2 µg each) with increasing concentrations of SOD1-derived peptide (0, 5, 15, and 30 µM). Immunoblotting was used to determine the levels of SOD1^G93A and VDAC1 in the bound and unbound fraction of each immunoprecipitation experiment. […] (H) Quantification of immunoblotting bands with ImageJ software. Quantification analysis of the relative VDAC1 intensity was performed with one-way ANOVA. Bars represent mean ± SEM. TEXT PRINTED IN THE PICTURE: (F) SOD1-derived peptide: Kd= 4 μM
Customized 768-peptide sequences derived from 19 VDAC1-interacting proteins produced by INTAVIS Peptide Services (GmbH & Co. KG, Tübingen, Germany) were arrayed on a glass slide. The interaction of purified VDAC1 with glass-bound peptide arrays (BGUN_SB-002) was assessed by slide washing with TBST buffer (150 mM NaCl, 50 mM Tris/HCl, pH 7.4, and 0.1% Tween-20), followed by overnight incubation with blocking buffer (Tris-buffered saline, pH 7.8, containing 2.5% low-fat milk, w/v) at 4 °C. Next, the peptide array glass slides were incubated with purified VDAC1 (64 nM) in 400 µL of protein-interacting buffer (20 mM HEPES, 100 mM KCl, pH,7.4, PBS) at room temperature for 4 h in a humidified chamber. Then, the peptide array glass slides were washed (three times, 10 min each) with TBST and incubated overnight at 4 °C with anti-VDAC1 antibody against an internal sequence (ab15895) or against the N-terminus (ab154856) (1:5000). The peptide array glass slides were washed with 0.1% Tween-20 in TBS buffer/Tris-buffered saline (150 mM NaCl, 50 mM Tris/HCl, pH 7.4 TBST), followed by incubation for 2 h at RT with HRP-conjugated anti-mouse or anti-rabbit (1:10,000) or anti-goat (1:20,000) IgG as a secondary antibody. Enhanced chemiluminescent substrate (Pierce Chemical, Rockford, IL, USA) was used to detect HRP. The signal was captured in the dark using FUSION-FX (Vilber Lourmat) software.
The VDAC1 protein was purified from rat liver mitochondria, as previously described. Briefly, rat liver mitochondria (5 mg/mL) in 10 mM Tris-HCl, pH 7.2, were incubated with 2% LDAO on ice for 20 min, followed by centrifugation (30 min, 14,000× g), and the obtained supernatant was loaded onto a dry celite:hydroxyapatite (2:1) column. VDAC1 was eluted with a solution containing 2% LDAO, 10 mM Tris-HCl, pH 7.2, 50 mM NaCl, and 22 mM NaH2PO4. The VDAC1-containing fractions were dialyzed against 10 mM Tris-HCl, pH 7.2, and subjected to a second chromatography step on a carboxymethyl-cellulose (CMC) column from which VDAC1 was eluted with a solution containing 10 mM Tris-HCl, pH 7.2, 0.3% LDAO, and 500 mM NaCl. The VDAC1-containing fractions were collected and used for VDAC1 channel conductance and microscale thermophoresis (MST) assays.
Recombinant SOD1^WT, SOD1^G93A, and SOD1^G85R were purified as previously described. Briefly, the proteins were expressed as 6His-tagged (N-term) soluble proteins in BL21 cells, and the expression of the recombinant proteins was induced by addition of 0.5 mM IPTG, following purification using a 5mL HisTrap FF column (GE Healthcare, Chicago, IL, USA). The peak fractions were dialyzed overnight at 4 °C against a storage buffer (50 mM Na^+/phosphate, pH 7.6, 0.1 M NaCl, and 10% glycerol), concentrated by ultrafiltration (10 kDa cutoff, Millipore, USA), centrifuged at 110,000× g at 4 °C for 1 h using ultracentrifuge (Sorvall M120 Discovery, Waltham, MA, USA), and stored at −20 °C until use. […]

Substance	cell death activity [1]	rescue of mutant SOD1-induced toxicity (cell survival) [2]	inhibition of VDAC1 interaction with 1C17 peptide [3]	decrease of VDAC1 interaction with both SOD1-derived peptides 1C16 and 1C17 [3]	inhibition of VDAC1 interaction with 1C16 peptide ([3]; spot 1C16)
1-MAVPPTYADLGKSARDVFTK-20-RQIKIWFQNRRMKWKK [(10–20)-N-Ter-Antp, VDAC1-N-terminus-derived peptide]	lost its cell death activity	rescued mutant SOD1-induced toxicity increasing SH-SY5Y cell survival	–	–	–
SOD1^G85R: recombinant dismutase inactive SOD1 mutant, 6His-tagged (N-term)	–	–	at a similar level	decreased the VDAC1 interaction with both SOD1-derived peptides	–
SOD1^G93A: recombinant dismutase active SOD1 mutant, 6His-tagged (N-term)	–	–	at a similar level	decreased the VDAC1 interaction with both SOD1-derived peptides	prevented the interaction of VDAC1 with the 1C16 peptide better than SOD1^WT and SOD1^G85R
SOD1^WT: recombinant wild type SOD1, 6His-tagged (N-term)	–	–	at a similar level	decreased the VDAC1 interaction with both SOD1-derived peptides	–
